Data reported in DBAASP.
Values after ≈ are worked out from the molar mass of the structure shown.

What was measured:
Test in all cases: ≥ marks a high value that may be exact or a test limit, other limits are often not marked, values filed in µg/mL are converted to µM
[1] = tested on: Candida albicans SC5314
[2] = tested on: Candida albicans CCARM 14020
[3] = tested on: Candida albicans CCARM 14021
[4] = tested on: Candida albicans CCARM 14022
[5] = tested on: Staphylococcus aureus ATCC 25923
[6] = tested on: Escherichia coli CVCC 245
[7] = tested on: Staphylococcus aureus CMCC 26003
[8] = tested on: Micrococcus luteus CVCC 28001
[9] = tested on: Escherichia coli K88
[10] = tested on: Listeria monocytogenes CVCC 1599
[11] = tested on: Lactiplantibacillus plantarum 965
[12] = tested on: Latilactobacillus sakei NCDO 2714
[13] = tested on: Staphylococcus epidermidis
[14] = tested on: Pseudomonas aeruginosa ATCC 27853
[15] = tested on: Escherichia coli B
[16] = tested on: Micrococcus luteus CCM 144
[17] = tested on: Pseudomonas aeruginosa
[18] = tested on: Staphylococcus aureus
[19] = tested on: Bacillus subtilis 168
[20] = tested on: Staphylococcus aureus ATCC 43300
[21] = tested on: Candida albicans F7-39/IDE99
[22] = tested on: Staphylococcus aureus 1
[23] = tested on: Staphylococcus xylosus
[24] = tested on: Escherichia coli DH5alpha
[25] = tested on: Candida parapsilosis ATCC 22019
[26] = tested on: Staphylococcus aureus ATCC BAA-44
[27] = tested on: Enterococcus faecalis ATCC 29212
[28] = tested on: Acinetobacter baumannii ATCC 19606
[29] = tested on: Klebsiella pneumoniae ATCC 13883
[30] = tested on: Escherichia coli ATCC 25922
[31] = tested on: Listeria ivanovii
[32] = tested on: Candida albicans ATCC 90028
[33] = tested on: Streptococcus agalactiae
[34] = tested on: Mycobacterium tuberculosis H37Rv
[35] = tested on: Candida glabrata
[36] = tested on: Candida albicans
[37] = tested on: Mycobacterium tuberculosis
[38] = tested on: Pseudomonas aeruginosa ATCC 9027
[39] = tested on: Vibrio vulnificus BCRC 12905
[40] = tested on: Vibrio alginolyticus
[41] = tested on: Trichomonas vaginalis ATCC 30001
[42] = tested on: Trichomonas vaginalis ATCC 50143
[43] = tested on: Trichomonas vaginalis T1
[44] = tested on: Listeria monocytogenes BCRC 14845

CC(C)C[C@H](NC(=O)[C@@H](N)Cc1c[nH]c2ccccc12)C(=O)N[C@@H](CC(N)=O)C(=O)N[C@@H](C)C(=O)N[C@@H](CCCCN)C(=O)N[C@@H](CCCN=C(N)N)C(=O)N[C@@H](Cc1cnc[nH]1)C(=O)N[C@@H](Cc1cnc[nH]1)C(=O)NCC(=O)N[C@@H](Cc1ccc(O)cc1)C(=O)N[C@@H](CCCCN)C(=O)N[C@@H](CCCN=C(N)N)C(=O)N[C@@H](CCCCN)C(=O)N[C@@H](Cc1ccccc1)C(=O)N[C@@H](Cc1cnc[nH]1)C(N)=O [WLNAKRHHGYKRKFH]
MIC [1]: 2.86 µM (≈ 5.65 µg/mL)
MIC [2]: 2.86 µM (≈ 5.65 µg/mL)
MIC [3]: 5.72 µM (≈ 11.3 µg/mL)
MIC [4]: 16.2 µM (≈ 32 µg/mL)

CC[C@H](C)[C@H](NC(=O)[C@H](CCCCN)NC(=O)[C@H](CCCCN)NC(=O)[C@H](Cc1ccccc1)NC(=O)[C@H](CC(C)C)NC(=O)[C@H](CCCCN)NC(=O)[C@H](Cc1c[nH]c2ccccc12)NC(=O)[C@@H](N)CCCCN)C(=O)N[C@@H](Cc1ccccc1)C(=O)N[C@@H](CCCCN)C(=O)N[C@@H](CCCN=C(N)N)C(=O)N[C@H](C(=O)N[C@H](C(=O)N[C@@H](CCC(N)=O)C(=O)N[C@@H](CCCN=C(N)N)C(=O)N[C@H](C(=O)N[C@@H](CCCCN)C(=O)N[C@@H](CC(=O)O)C(=O)N[C@@H](Cc1ccccc1)C(=O)N[C@@H](CC(C)C)C(=O)N[C@@H](CCCN=C(N)N)C(=O)N[C@@H](CC(N)=O)C(=O)O)[C@@H](C)CC)C(C)C)[C@@H](C)CC [KWKLFKKIFKRIVQRIKDFLRN]
MIC [5]: 0.688 µM (≈ 2 µg/mL)
MIC [6]: 2.41 µM (≈ 7 µg/mL)
MIC [7]: 2.41 µM (≈ 7 µg/mL)
MIC [8]: 5.51 µM (≈ 16 µg/mL)
MIC [9]: 2.75 µM (≈ 8 µg/mL)
MIC [10]: 0.688 µM (≈ 2 µg/mL)

CSCC[C@H](NC(=O)[C@H](CCC(N)=O)NC(=O)[C@H](CC(C)C)NC(=O)[C@H](CO)NC(=O)[C@@H](N)Cc1ccc(O)cc1)C(=O)O [YSLQM]
MIC [11]: 10 µM (≈ 6.41 µg/mL)
MIC [12]: 1 µM (≈ 0.641 µg/mL)

CC[C@H](C)[C@H](NC(=O)CN)C(=O)N[C@@H](CCSC)C(=O)N[C@H](C(=O)N[C@@H](CO)C(=O)N[C@@H](CC(C)C)C(=O)N[C@@H](CCSC)C(=O)N[C@@H](CCCCN)C(=O)N[C@@H](CCCCN)C(=O)N[C@@H](CC(C)C)C(=O)N[C@@H](C)C(=O)N[C@@H](C)C(=O)N[C@@H](Cc1cnc[nH]1)C(=O)N[C@H](C(=O)N[C@@H](C)C(=O)N[C@@H](CCCCN)C(N)=O)[C@@H](C)CC)[C@@H](C)CC [GIMISLMKKLAAHIAK]
MIC [13]: 8.8 µM (≈ 15.2 µg/mL)
MIC [14]: 47 µM (≈ 81 µg/mL)
MIC [15]: 12 µM (≈ 20.7 µg/mL)
MIC [16]: 3 µM (≈ 5.17 µg/mL)
MIC [17]: > 100 µM
MIC [18]: 65 µM (≈ 112 µg/mL)
MIC [19]: 7 µM (≈ 12.1 µg/mL)
MIC [20]: 43 µM (≈ 74.1 µg/mL)
MIC [21]: 12 µM (≈ 20.7 µg/mL)
MIC [22]: ≥ 35 µM

NC(N)=NCCC[C@H](NC(=O)[C@H](CCCN=C(N)N)NC(=O)[C@H](CCCN=C(N)N)NC(=O)[C@H](Cc1ccccc1)NC(=O)[C@H](Cc1ccccc1)NC(=O)[C@H](Cc1ccccc1)NC(=O)[C@H](Cc1ccccc1)NC(=O)[C@H](Cc1ccccc1)NC(=O)[C@H](CCCN=C(N)N)NC(=O)[C@H](CCCN=C(N)N)NC(=O)[C@@H](N)CCCN=C(N)N)C(=O)O [RRRFFFFFRRR]
MIC [23]: 0.5 µM (≈ 0.846 µg/mL)
MIC [24]: 4 µM (≈ 6.76 µg/mL)

CC(C)C[C@H](NC(=O)[C@H](CCCN=C(N)N)NC(=O)CNC(=O)[C@H](Cc1ccccc1)NC(=O)[C@@H](N)Cc1ccccc1)C(=O)N[C@@H](CCCCN)C(=O)N[C@@H](CO)C(=O)N[C@H](C(=O)N[C@@H](Cc1c[nH]c2ccccc12)C(=O)N[C@@H](CO)C(=O)N[C@@H](C)C(=O)N[C@H](C(=O)N[C@@H](CCCCN)C(=O)N[C@@H](Cc1cnc[nH]1)C(=O)NCC(=O)N[C@@H](Cc1c[nH]c2ccccc12)C(=O)N[C@@H](CCCCN)C(=O)N[C@@H](C)C(=O)N[C@@H](C)C(=O)N[C@@H](CCCCN)C(=O)N[C@@H](CO)C(=O)N[C@@H](CCCN=C(N)N)C(=O)O)C(C)C)C(C)C [FFGRLKSVWSAVKHGWKAAKSR]
MIC [5]: 3 µM (≈ 7.64 µg/mL)
MIC [14]: 6 µM (≈ 15.3 µg/mL)
MIC [25]: ≥ 50 µM
MIC [26]: 3 µM (≈ 7.64 µg/mL)
MIC [27]: 12.5 µM (≈ 31.8 µg/mL)
MIC [28]: 3 µM (≈ 7.64 µg/mL)
MIC [29]: 6 µM (≈ 15.3 µg/mL)
MIC [30]: 4.24 µM (≈ 10.8 µg/mL)
MIC [31]: 3 µM (≈ 7.64 µg/mL)
MIC [32]: 25 µM (≈ 63.7 µg/mL)

CC[C@H](C)[C@H](NC(=O)[C@H](CCCCN)NC(=O)[C@H](CCCCN)NC(=O)[C@@H](NC(=O)[C@H](C)NC(=O)[C@H](CO)NC(=O)[C@@H](NC(=O)[C@H](C)NC(=O)[C@H](CO)NC(=O)[C@@H]1CCCN1C(=O)[C@@H](NC(=O)[C@H](CC(C)C)NC(=O)[C@H](CO)NC(=O)[C@H](CC(C)C)NC(=O)[C@H](CC(C)C)NC(=O)[C@H](Cc1ccccc1)NC(=O)[C@@H](N)Cc1ccccc1)[C@@H](C)CC)[C@@H](C)CC)[C@@H](C)CC)C(N)=O [FFLLSLIPSAISAIKKI]
MIC [5]: 5 µM (≈ 9.3 µg/mL)
MIC [33]: 5 µM (≈ 9.3 µg/mL)
MIC [34]: 5.4 µM (≈ 10 µg/mL)
MIC [35]: ≥ 50 µM
MIC [36]: 6.25 µM (≈ 11.6 µg/mL)
MIC [37]: 8.6 µM (≈ 16 µg/mL)
MIC [30]: 24 µM (≈ 44.6 µg/mL)
MIC [38]: 5 µM (≈ 9.3 µg/mL)

CSCC[C@H](NC(=O)[C@H](CCCN=C(N)N)NC(=O)CNC(=O)[C@H](CCCCN)NC(=O)[C@H](Cc1ccc(O)cc1)NC(=O)[C@H](Cc1ccc(O)cc1)NC(=O)[C@@H](NC(=O)[C@H](CCC(N)=O)NC(=O)[C@H](Cc1ccccc1)NC(=O)[C@H](CCCN=C(N)N)NC(=O)[C@H](CCCCN)NC(=O)[C@H](CC(C)C)NC(=O)[C@H](Cc1ccc(O)cc1)NC(=O)[C@@H]1CCCN1C(=O)[C@H](CCCCN)NC(=O)[C@@H](NC(=O)[C@@H](NC(=O)[C@H](Cc1ccccc1)NC(=O)[C@H](CCCCN)NC(=O)[C@H](CS)NC(=O)[C@H](CCC(=O)O)NC(C)=O)[C@@H](C)O)C(C)C)C(C)C)C(=O)N[C@@H](Cc1c[nH]c2ccccc12)C(=O)N[C@@H](CS)C(=O)N1CCC[C@H]1C(N)=O [ECKFTVKPYLKRFQVYYKGRMWCP]
MIC [39]: ≥ 32.6 µM
MIC [40]: ≥ 32.6 µM
MIC [41]: ≥ 32.6 µM
MIC [42]: 8.14 µM (≈ 25.3 µg/mL)
MIC [43]: ≥ 65.1 µM
MIC [44]: 8.14 µM (≈ 25.3 µg/mL)
